# Laboratory results reported in patent US5453444A, “Method to mitigate or eliminate weight loss” (Otsuka Pharmaceutical Co., Ltd., priority 1994, dated 1995).
# Experiments:
# IL-6 = IL-6 dependent proliferation of B-9 cells (3H-thymidine incorporation); type: cell-based; settings: for cpm of 3H-thymidine incorporation, B-9 cells: Table 5; for proliferation of B-9 cells in response to IL-6: result in words; for cpm of 3H-thymidine, B-9 cells: Table 3
# Protocol: A standard proliferation assay, Strassmann et al., J. Immunol., 147:1279-1285 (1991), was conducted using 96 well plates The medium used was RPMI with 10% fetal calf serum B-9 cells were added and were cultured for 3 days. The extent of proliferation of B-9 cells was determined by the incorporation of radioactive thymidine as described in Strassmann et al., J. Clin. Invest., 89, pp. 1681-84 (May 1992). […] (See Strassmann et al., J. Clin. Invest., 89, pp. 1681-84 (May 1992), incorporated herein by reference.)
# The same procedures set forth in Example 5 was followed except that a different sulfate-containing compound, Pentosan polysulfate, was used.
# The same procedure set forth in Example 5 was followed except in this example, Dextran sulfate and Dextran, were used instead of Suramin.
# IL-6 receptor = test: Radioreceptor assay: binding of 125I-IL-6 to U266 cells; parameters: species or system human
# Protocol: This experiment analyzed whether suramin inhibits IL-6 bioactivity by interfering with binding to the IL-6 receptor. Into eighteen test tubes was placed U266 indicator cells (obtained from ATCC), a binding buffer, made up of RPMI medium, 0.1 mg BSA and […] Hepes, and 100,000 cpm (0.8 ng) of ^125 I-IL-6. The tubes were divided into six groups of three tubes each and received suramin as follows: group 1 had 300 uM suramin; group 2 had 100 uM suramin; group 3 had 30 uM suramin; group 4 had 10 uM suramin; and group 5 had no suramin, but only medium (control for maximal binding). In addition, group 6 received excess unlabeled IL-6 without suramin for use in determining the background of binding in this assay.
# After 90 minutes of incubation at 4° C. and the centrifugation of cells on oil (a standard radioreceptor assay) Strassmann, J. Immunol., 147:1279-1289 (1991), the amount of radioactivity bound to the cells was determined. […] Also, the addition of increasing amounts of suramin prevented the binding of radioactive IL-6 to U266 human myeloma indicator cells in vitro as reflected in the results set forth in FIG. 6.
# The same procedure set forth in Example 6 was followed, except that Pentosan polysulfate was used instead of Suramin.
substance,measurement,setting,value
Dextran sulfate,"cpm of 3H-thymidine incorporation, B-9 cells","IL-6; compound 30 μM, IL-6 3 pg/ml",7603 cpm
same,"cpm of 3H-thymidine incorporation, B-9 cells","IL-6; compound 30 μM, IL-6 10 pg/ml",68066 cpm
same,"cpm of 3H-thymidine incorporation, B-9 cells","IL-6; compound 30 μM, IL-6 30 pg/ml",204155 cpm
same,"cpm of 3H-thymidine incorporation, B-9 cells","IL-6; compound 100 μM, IL-6 3 pg/ml",8075 cpm
same,"cpm of 3H-thymidine incorporation, B-9 cells","IL-6; compound 100 μM, IL-6 10 pg/ml",31678 cpm
same,"cpm of 3H-thymidine incorporation, B-9 cells","IL-6; compound 100 μM, IL-6 30 pg/ml",150233 cpm
same,"cpm of 3H-thymidine incorporation, B-9 cells","IL-6; compound 300 μM, IL-6 3 pg/ml",2461 cpm
same,"cpm of 3H-thymidine incorporation, B-9 cells","IL-6; compound 300 μM, IL-6 10 pg/ml",16573 cpm
same,"cpm of 3H-thymidine incorporation, B-9 cells","IL-6; compound 300 μM, IL-6 30 pg/ml",112835 cpm
same,proliferation of B-9 cells in response to IL-6,IL-6,prevented the proliferation of B-9 cells in response to IL-6
Pentosan polysulfate,"cpm of 3H-thymidine, B-9 cells","IL-6; compound 300 μM, IL-6 added 1 pg/ml",1567 cpm
same,"cpm of 3H-thymidine, B-9 cells","IL-6; compound 300 μM, IL-6 added 3 pg/ml",2648 cpm
same,"cpm of 3H-thymidine, B-9 cells","IL-6; compound 300 μM, IL-6 added 10 pg/ml",11456 cpm
same,"cpm of 3H-thymidine, B-9 cells","IL-6; compound 300 μM, IL-6 added 30 pg/ml",60287 cpm
same,"cpm of 3H-thymidine, B-9 cells","IL-6; compound 1000 μM, IL-6 added 1 pg/ml",795 cpm
same,"cpm of 3H-thymidine, B-9 cells","IL-6; compound 1000 μM, IL-6 added 3 pg/ml",1062 cpm
same,"cpm of 3H-thymidine, B-9 cells","IL-6; compound 1000 μM, IL-6 added 10 pg/ml",3586 cpm
same,"cpm of 3H-thymidine, B-9 cells","IL-6; compound 1000 μM, IL-6 added 30 pg/ml",26727 cpm
same,proliferation of B-9 cells in response to IL-6,IL-6,prevented the proliferation of B-9 cells
same,cpm 125I-IL-6 bound to U266 cells,IL-6 receptor; 3 μM,3000 cpm
same,cpm 125I-IL-6 bound to U266 cells,IL-6 receptor; 30 μM,2575 cpm
same,cpm 125I-IL-6 bound to U266 cells,IL-6 receptor; 300 μM,2003 cpm
same,binding of radioactive IL-6 to U266 cells,"IL-6 receptor; 90 minutes at 4° C., increasing amounts of compound",inhibited the binding of radioactive IL-6 to U266 human myeloma cells
hIL-6: excess unlabeled IL-6 used for determining the background of binding in the radioreceptor assay,cpm 125I-IL-6 bound to U266 cells,IL-6 receptor; 270 ng/ml unlabeled competitor (background of binding),1416 cpm
